Results published in ChEMBL document CHEMBL5120864, “Targeting Enhancer of Zeste Homolog 2 for the Treatment of Hematological Malignancies and Solid Tumors: Candidate Structure-Activity Relationships Insights and Evolution Prospects” (J Med Chem, 2022).
≈ marks a conversion by molar mass, not a printed value.

Columns and labels:
MDA-MB-231 [1] = assay: cells; assay type: functional, cell-based; conditions: Homo sapiens, MDA-MB-231, 72 h
HepG2 [2] = assay type: functional, Homo sapiens; conditions: time 24 hrs
HepG2 [3] = assay: cells; assay type: functional, cell-based; conditions: Homo sapiens, HepG2, 24 h
MCF7 [4] = assay: cells; assay type: functional, cell-based; conditions: Homo sapiens, MCF7, 24 h
PC-3 [5] = assay: cells; assay type: functional, cell-based; conditions: Homo sapiens, PC-3, 24 h
MCF7 [6] = assay type: functional, Homo sapiens; conditions: time 24 hrs
PC-3 [7] = assay type: functional, Homo sapiens; conditions: time 24 hrs
[8] = target: T1, Protein cereblon/Histone-lysine N-methyltransferase EZH2 (Homo sapiens, UniProt Q15910+Q96SW2); assay type: cell-based, DOHH-2
[9] = target: T1, Protein cereblon/Histone-lysine N-methyltransferase EZH2; assay type: cell-based, OCILY7
cells [10] = assay type: functional, cell-based; conditions: Homo sapiens, WSU-FSCCL, 48 h
BT-474 = assay: cells; assay type: functional, cell-based; conditions: Homo sapiens, BT-474, 72 h
[11] = target: T2, Histone-lysine N-methyltransferase EZH2 (Homo sapiens, UniProt Q15910, Y641F)
[12] = target: T3, Histone-lysine N-methyltransferase EZH1 (Homo sapiens, UniProt Q92800)
T3 sequence (Q92800 whole entry): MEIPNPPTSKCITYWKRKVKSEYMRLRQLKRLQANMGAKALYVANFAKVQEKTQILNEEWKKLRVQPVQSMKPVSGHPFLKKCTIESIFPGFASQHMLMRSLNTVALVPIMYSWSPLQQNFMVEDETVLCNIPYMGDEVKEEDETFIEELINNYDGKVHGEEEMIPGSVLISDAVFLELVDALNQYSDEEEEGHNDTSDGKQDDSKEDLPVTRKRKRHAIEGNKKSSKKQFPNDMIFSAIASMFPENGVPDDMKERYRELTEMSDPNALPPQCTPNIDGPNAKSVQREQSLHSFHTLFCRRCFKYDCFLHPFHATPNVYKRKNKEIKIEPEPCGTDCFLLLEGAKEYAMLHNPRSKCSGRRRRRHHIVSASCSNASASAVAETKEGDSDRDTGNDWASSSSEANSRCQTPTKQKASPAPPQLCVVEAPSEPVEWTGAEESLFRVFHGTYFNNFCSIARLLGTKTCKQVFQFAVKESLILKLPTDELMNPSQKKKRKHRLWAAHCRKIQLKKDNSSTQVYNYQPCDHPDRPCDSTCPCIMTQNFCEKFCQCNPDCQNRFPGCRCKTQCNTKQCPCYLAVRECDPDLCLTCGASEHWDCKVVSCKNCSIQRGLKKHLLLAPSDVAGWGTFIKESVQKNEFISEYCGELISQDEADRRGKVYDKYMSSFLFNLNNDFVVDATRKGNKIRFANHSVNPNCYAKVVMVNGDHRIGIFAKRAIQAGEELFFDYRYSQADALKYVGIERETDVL

MCF7 [13] = assay: cells; assay type: functional, cell-based; conditions: Homo sapiens, MCF7, 96 h
ZR-75-1 = assay: cells; assay type: functional, cell-based; conditions: Homo sapiens, ZR-75-1, 96 h
[14] = target: T4, Histone-lysine N-methyltransferase EZH2 (Homo sapiens, UniProt Q15910)
[15] = target: T3, Histone-lysine N-methyltransferase EZH1; remark: listed apart in the source
SU-DHL-6 [16] = assay: cells; assay type: functional, cell-based; conditions: Homo sapiens, SU-DHL-6, 96 h
Pfeiffer [17] = assay: cells; assay type: functional, cell-based; conditions: Homo sapiens, 96 h
cells [18] = conditions: Homo sapiens, MDA-MB-23
MDA-MB-468 = assay: cells; conditions: Homo sapiens
MCF7 [19] = assay: cells; conditions: Homo sapiens
SU-DHL-6 [20] = assay: cells; assay type: functional, cell-based; conditions: Homo sapiens
Pfeiffer [21] = assay: cells; assay type: functional, cell-based; conditions: Homo sapiens
HCT-15 = assay: cells; assay type: functional, cell-based; conditions: Homo sapiens, HCT-15, 96 h
MDA-MB-231 [22] = assay: cells; assay type: functional, cell-based; conditions: Homo sapiens, MDA-MB-231, 96 h
[23] = target: T3, Histone-lysine N-methyltransferase EZH1; remark: listed apart in the source
[24] = target: T4, Histone-lysine N-methyltransferase EZH2; remark: listed apart in the source
NCI-H1299 = assay: cells; assay type: functional, cell-based; conditions: Homo sapiens
NCI-H1975 = assay: cells; assay type: functional, cell-based; conditions: Homo sapiens
PC-3 [25] = assay: cells; assay type: functional, cell-based; conditions: Homo sapiens
A549 = assay: cells; assay type: functional, cell-based; conditions: Homo sapiens
in vivo = conditions: rat
[26] = target: T2, Histone-lysine N-methyltransferase EZH2; remark: listed apart in the source
[27] = target: T4, Histone-lysine N-methyltransferase EZH2; remark: listed apart in the source
KARPAS-422 [28] = assay: animal or person; assay type: functional, Homo sapiens; conditions: Mus musculus, route po
KARPAS-422 [29] = assay: cells; assay type: functional, cell-based; conditions: Homo sapiens
WSUDLCL2 = assay: cells; assay type: functional, cell-based; conditions: Homo sapiens
[30] = target: T4, Histone-lysine N-methyltransferase EZH2; remark: listed apart in the source
KARPAS-422 [31] = assay: cells; assay type: functional; conditions: Homo sapiens, time 10-15 day
[32] = target: T4, Histone-lysine N-methyltransferase EZH2; remark: listed apart in the source
[33] = mouse, in vivo
physchem = conditions: buffer

T2 sequence (Q15910 whole entry Y641F): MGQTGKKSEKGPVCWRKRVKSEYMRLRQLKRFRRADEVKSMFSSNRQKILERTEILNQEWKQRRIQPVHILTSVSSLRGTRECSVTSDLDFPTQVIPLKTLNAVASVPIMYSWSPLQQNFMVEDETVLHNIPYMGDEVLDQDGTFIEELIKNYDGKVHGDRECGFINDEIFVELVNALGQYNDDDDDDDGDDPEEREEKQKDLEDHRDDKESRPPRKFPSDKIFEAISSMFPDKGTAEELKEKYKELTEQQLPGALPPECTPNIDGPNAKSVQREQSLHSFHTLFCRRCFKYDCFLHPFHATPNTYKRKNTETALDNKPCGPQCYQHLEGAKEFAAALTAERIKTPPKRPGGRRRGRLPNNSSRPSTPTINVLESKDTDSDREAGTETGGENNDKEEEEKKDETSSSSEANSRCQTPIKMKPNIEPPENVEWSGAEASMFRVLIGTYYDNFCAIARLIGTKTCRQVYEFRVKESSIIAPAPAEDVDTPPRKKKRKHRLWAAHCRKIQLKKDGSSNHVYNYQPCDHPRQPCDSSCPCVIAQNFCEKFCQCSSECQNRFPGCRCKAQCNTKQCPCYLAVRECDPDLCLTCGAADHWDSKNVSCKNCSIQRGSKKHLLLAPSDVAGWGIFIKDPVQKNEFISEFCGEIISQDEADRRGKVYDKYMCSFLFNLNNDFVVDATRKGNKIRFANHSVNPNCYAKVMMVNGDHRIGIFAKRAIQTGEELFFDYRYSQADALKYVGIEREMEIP
T1 sequence (Q15910 whole entry): as the sequence (Q15910 whole entry Y641F) above, with F641Y counted along it
T1 sequence (Q96SW2 whole entry): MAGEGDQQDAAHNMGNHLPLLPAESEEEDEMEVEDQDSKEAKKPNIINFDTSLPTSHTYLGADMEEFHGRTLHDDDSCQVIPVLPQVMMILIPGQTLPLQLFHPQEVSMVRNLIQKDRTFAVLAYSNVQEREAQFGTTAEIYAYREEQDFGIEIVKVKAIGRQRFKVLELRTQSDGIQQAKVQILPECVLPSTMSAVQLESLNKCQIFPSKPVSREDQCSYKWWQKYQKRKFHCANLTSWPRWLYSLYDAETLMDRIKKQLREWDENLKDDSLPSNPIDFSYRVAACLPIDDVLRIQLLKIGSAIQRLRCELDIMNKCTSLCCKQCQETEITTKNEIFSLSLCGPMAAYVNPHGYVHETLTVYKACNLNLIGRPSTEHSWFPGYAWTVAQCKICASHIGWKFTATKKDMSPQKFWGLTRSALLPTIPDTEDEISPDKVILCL
T4 sequence (Q15910 whole entry): as the sequence (Q15910 whole entry Y641F) above, with F641Y counted along it

SMILES: COc1cc2nc(N3CCCN(C)CC3)nc(NC3CCN(Cc4ccccc4)CC3)c2cc1OC
- IC50 (MDA-MB-231 [1]): 9600 nM

SMILES: COc1ccc(C2SCCC(=O)N2Nc2nc3ccccc3[nH]2)cc1 (stereo not given)
- inhibition (INH) (HepG2 [2]): 64%
- IC50 (HepG2 [3]): 8950 nM
- IC50 (MCF7 [4]): 16600 nM
- IC50 (PC-3 [5]): 27000 nM
- inhibition (INH) (MCF7 [6]): 50.8%
- inhibition (INH) (PC-3 [7]): 36.7%

SMILES: CCN(c1cc(-c2ccc(CN3CCN(C(=O)CCCCCCCNc4cccc5c4C(=O)N(C4CCC(=O)NC4=O)C5=O)CC3)cc2)cc(C(=O)NCc2c(C)cc(C)[nH]c2=O)c1C)C1CCOCC1 (stereo not given)
- IC50 [8]: 100 nM
- IC50 [9]: 60 nM

SMILES: COc1cc2nc(N3CCN(C)CC3)nc(NC3CCN(Cc4ccccc4)CC3)c2cc1OC
- IC50 (MDA-MB-231 [1]): 4300 nM
- IC50 (cells [10]): 3400 nM
- IC50 (BT-474): 2100 nM

SMILES: CCN(c1cc(-c2ccc(N3CCN(C)CC3)cc2)cc(C(=O)NCc2c3c(c(C)[nH]c2=O)CCCC3)c1C)C1CCOCC1
- IC50 [11]: 15 nM
- IC50 [12]: 81 nM
- IC50 (MCF7 [13]): 990 nM
- IC50 (ZR-75-1): 89 nM

SMILES: CCN(c1cc(-c2ccc(CN3CCN(C)CC3)cc2)cc(C(=O)NCc2c3c(c(C)[nH]c2=O)CCCC3)c1C)C1CCCCC1
- IC50 [14]: 9.8 nM
- IC50 [11]: 182 nM
- IC50 [15]: 136 nM
- IC50 (SU-DHL-6 [16]): 2010 nM
- IC50 (Pfeiffer [17]): 1430 nM

SMILES: O=C(c1cc(Cc2n[nH]c(=O)c3ccccc23)ccc1F)N1CCN(C(=O)C2CC2)CC1 [OLAPARIB]
- IC50 (cells [18]): 36900 nM
- IC50 (MDA-MB-468): 35600 nM
- IC50 (MCF7 [19]): > 50000 nM

SMILES: CCN(c1cc(-c2ccc(CN3CCN(C)CC3)cc2)cc(C(=O)NCc2c3c(c(C)[nH]c2=O)CCCC3)c1C)C1CCOCC1
- IC50 (SU-DHL-6 [20]): 16000 nM
- IC50 (Pfeiffer [21]): 12.5 nM

SMILES: COc1cccc2nc(N3CCCN(C)CC3)cc(NC3CCN(C)CC3)c12
- IC50 (HCT-15): 7600 nM
- IC50 (MDA-MB-231 [22]): 2450 nM

SMILES: CCC(CC)n1ccc2c(C(=O)NCc3c(C)cc(C)[nH]c3=O)cc(C#N)cc21
- IC50 [23]: 13 nM

SMILES: CCN(c1cc(-c2ccc(CN3CCN(C(=O)CCCCCNc4cccc5c4C(=O)N(C4CCC(=O)NC4=O)C5=O)CC3)cc2)cc(C(=O)NCc2c(C)cc(C)[nH]c2=O)c1C)C1CCOCC1 (stereo not given)
- IC50 [8]: 100 nM
- IC50 [9]: 100 nM

SMILES: Nc1nccc2c1ncn2[C@@H]1C=C(CO)[C@@H](O)[C@H]1O
- IC50 [24]: 80 nM
- IC50 (NCI-H1299): 210 nM
- IC50 (NCI-H1975): 80 nM
- IC50 (PC-3 [25]): 190 nM
- IC50 (A549): 240 nM
- half-life (in vivo): 1.1 h

SMILES: COC1CN([C@H]2CC[C@H]([C@@H](C)c3scc(C(=O)NCc4c(C)cc(C)[nH]c4=O)c3C)CC2)C1
- IC50 [26]: 0.93 nM
- IC50 [27]: 1.43 nM
- inhibition in vivo at 50 mg/kg (KARPAS-422 [28]): 53%

SMILES: C[C@H](C(=O)NC1COC1)c1cnc(NC[C@H]2CC[C@H](Nc3ccc4ccnc(Cl)c4n3)CC2)nc1
- IC50 (KARPAS-422 [29]): 0.3 nM

SMILES: COc1cc(C)[nH]c(=O)c1CN1CCn2ccc3cc(-c4c(C)noc4C)c(Cl)c(c32)C1=O
- IC50 (WSUDLCL2): 3.8 nM
- IC50 (KARPAS-422 [29]): 52 nM

SMILES: C=CC(=O)Nc1cc(-c2ccc(N3CCNCC3)nc2)cc(C(=O)NCc2c(CC)cc(C)[nH]c2=O)c1C
- IC50 [30]: 47 nM

SMILES: CCN1CCN(c2ccc(-c3cc(C(=O)NCc4c(C)cc(C)[nH]c4=O)c(C)c4c3O[C@](C)(CN3CCOCC3)O4)cn2)CC1
- GI50 (KARPAS-422 [31]): 210 nM

SMILES: COc1cc(C)[nH]c(=O)c1CNC(=O)c1c(C)n(C(C)C2CCN(C)C(C(F)(F)F)C2)c2ccccc12 (stereo not given)
- IC50 [26]: < 100 nM
- IC50 [32]: < 400000 nM
- IC50 [27]: < 100 nM
- CL [33]: 55 µL/min/mg

SMILES: CCN(c1cc(-c2ccccc2)cc(C(=O)NCc2c3c(c(C)[nH]c2=O)CCCC3)c1C)C1CCOCC1
- solubility (physchem): 185 µg/mL (≈ 361 µM)
